Measured values from US8680139B2 (Progenra, priority 2009, dated 2014).
Where “and” joins values, the source holds several entries; their conditions need not be identical. Identical values can stand only once.

Biological target: T1, USP7 (Homo sapiens, UniProt Q93009)
T1 construct: full length human USP7 protein; made in house
Assay: USP7, Ub-PLA2 assay
Format: biochemical
Details: for EC50: Ub-PLA2 / NBD C6-HPC fluorescence, 30 minute preincubation, read-out: EC50 for inhibition of USP7
Method: The purpose of this assay is to measure the inhibition of USP7 by various compounds of the invention synthesized according to the above-described methods. […] The vehicle control was 100% (v/v) DMSO. 1.6 μL aliquots of the diluted test compound and controls were dispensed into individual wells in a black walled 96 well plate. […] The data were normalized within a plate relative to the control wells using the equation % inhibition=(100−(((RFUcompound−RFUmean NEM) / (RFUmean DMSO−RFUmean NEM))×100)).

T1 sequence (Q93009 whole entry): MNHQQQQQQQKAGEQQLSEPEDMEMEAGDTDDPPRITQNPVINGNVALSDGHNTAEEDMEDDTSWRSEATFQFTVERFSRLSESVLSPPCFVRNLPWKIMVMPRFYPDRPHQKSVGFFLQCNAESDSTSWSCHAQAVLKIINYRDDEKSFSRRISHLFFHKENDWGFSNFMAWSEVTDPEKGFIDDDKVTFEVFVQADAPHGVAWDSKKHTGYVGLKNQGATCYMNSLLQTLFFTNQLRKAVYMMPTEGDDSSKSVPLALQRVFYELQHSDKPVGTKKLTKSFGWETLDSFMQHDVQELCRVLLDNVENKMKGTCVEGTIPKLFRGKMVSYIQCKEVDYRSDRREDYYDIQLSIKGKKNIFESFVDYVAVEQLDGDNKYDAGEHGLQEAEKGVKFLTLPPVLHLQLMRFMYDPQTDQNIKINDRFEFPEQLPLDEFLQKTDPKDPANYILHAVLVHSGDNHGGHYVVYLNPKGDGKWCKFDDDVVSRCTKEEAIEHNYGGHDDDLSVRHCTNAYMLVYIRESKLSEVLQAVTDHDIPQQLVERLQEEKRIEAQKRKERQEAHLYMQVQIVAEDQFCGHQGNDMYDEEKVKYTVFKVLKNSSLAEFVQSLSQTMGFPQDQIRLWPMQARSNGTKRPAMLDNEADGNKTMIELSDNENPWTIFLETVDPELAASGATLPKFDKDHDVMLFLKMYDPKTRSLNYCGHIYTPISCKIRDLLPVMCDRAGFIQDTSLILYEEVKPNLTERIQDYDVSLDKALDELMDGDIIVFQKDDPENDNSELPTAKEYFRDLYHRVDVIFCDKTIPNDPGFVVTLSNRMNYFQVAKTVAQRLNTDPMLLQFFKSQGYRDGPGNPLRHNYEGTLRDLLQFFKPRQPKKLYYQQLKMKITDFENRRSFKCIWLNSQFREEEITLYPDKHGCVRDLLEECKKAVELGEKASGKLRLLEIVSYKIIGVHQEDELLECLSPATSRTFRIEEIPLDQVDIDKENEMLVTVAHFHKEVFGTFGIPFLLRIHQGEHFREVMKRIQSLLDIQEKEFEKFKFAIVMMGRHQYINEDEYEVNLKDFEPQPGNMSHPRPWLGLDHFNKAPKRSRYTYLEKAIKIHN

With O=C(NCCc1ccc(Br)cc1)c1cc([N+](=O)[O-])c(Sc2c(Cl)cncc2Cl)s1 [Example 105, N-(4-bromophenethyl)-5-((3,5-dichloropyridin-4-yl)thio)-4-nitrothiophene-2-carboxamide] the EC50 was no more than 1000 nM.

NC(=O)c1cc([N+](=O)[O-])c(Sc2c(Cl)cncc2Cl)s1 [Example 46, 5-[(3,5-dichloro-4-pyridyl)sulfanyl]-4-nitro-thiophene-2-carboxamide] showed an EC50 of 1000 to 10000 nM.

In the case of CCCN1CCC(NC(=O)c2cc([N+](=O)[O-])c(Sc3c(Cl)cncc3Cl)s2)CC1 [Example 230, 5-((3,5-dichloropyridin-4-yl)thio)-4-nitro-N-(1-propylpiperidin-4-yl)thiophene-2-carboxamide], the EC50 is reported as no more than 1000 nM.

In the case of CC(O)c1cc([N+](=O)[O-])c(Sc2cccc(Cl)c2Cl)s1 (stereo not shown) [Example 19, 1-[5-(2,3-dichlorophenyl)sulfanyl-4-nitro-2-thienyl]ethanol], the EC50 is reported as greater than 10000 nM.

CN(C)CCC(NC(=O)c1cc([N+](=O)[O-])c(Sc2c(Cl)cncc2Cl)s1)c1ccccc1 (stereo not shown) [Example 200, 5-((3,5-dichloropyridin-4-yl)thio)-N-(3-(dimethylamino)-1-phenylpropyl)-4-nitrothiophene-2-carboxamide] showed an EC50 of no more than 1000 nM.

In the case of O=C(Nc1ccc(F)c(Cl)c1)c1cc([N+](=O)[O-])c(Sc2c(Cl)cncc2Cl)s1 [Example 137, N-(3-chloro-4-fluorophenyl)-5-((3,5-dichloropyridin-4-yl)thio)-4-nitrothiophene-2-carboxamide], the EC50 is reported as no more than 1000 nM.

O=C(NCc1cccc(OC(F)F)c1)c1cc([N+](=O)[O-])c(Sc2c(Cl)cncc2Cl)s1 [Example 145, 5-((3,5-dichloropyridin-4-yl)thio)-N-(3-(difluoromethoxy)benzyl)-4-nitrothiophene-2-carboxamide] was tested, and the EC50 was no more than 1000 nM.

Work on CS(=O)(=O)N1CCC(NC(=O)c2cc([N+](=O)[O-])c(Sc3c(Cl)cncc3Cl)s2)CC1 [Example 233, 5-((3,5-dichloropyridin-4-yl)thio)-N-(1-(methylsulfonyl)piperidin-4-yl)-4-nitrothiophene-2-carboxamide] yielded an EC50 of no more than 1000 nM.

In the case of COc1cccc(CN(C)C(=O)c2cc([N+](=O)[O-])c(Sc3c(Cl)cncc3Cl)s2)c1 [Example 67, 5-((3,5-dichloropyridin-4-yl)thio)-N-(3-methoxybenzyl)-N-methyl-4-nitrothiophene-2-carboxamide], the EC50 is reported as 1000 to 10000 nM.

For COCCCNC(=O)CNC(=O)c1cc([N+](=O)[O-])c(Sc2c(Cl)cncc2Cl)s1 [Example 213, 5-((3,5-dichloropyridin-4-yl)thio)-N-(2-((3-methoxypropyl)amino)-2-oxoethyl)-4-nitrothiophene-2-carboxamide], the EC50 was 1000 to 10000 nM.

For O=C(c1cc([N+](=O)[O-])c(Sc2c(Cl)cncc2Cl)s1)N1CCN(CCO)CC1 [Example 61, (5-((3,5-dichloropyridin-4-yl)thio)-4-nitrothiophen-2-yl)(4-(2-hydroxyethyl)piperazin-1-yl)methanone], the EC50 was 1000 to 10000 nM.

For CN1CCC(NC(=O)c2sc(Sc3c(Cl)cncc3Cl)c(C#N)c2-c2ccccc2)CC1 [Example 247, 4-cyano-5-((3,5-dichloropyridin-4-yl)thio)-N-(1-methylpiperidin-4-yl)-3-phenylthiophene-2-carboxamide], the EC50 was 1000 to 10000 nM.

CN1CCC(CNC(=O)c2cc([N+](=O)[O-])c(Sc3c(Cl)cncc3Cl)s2)CC1 [Example 190, 5-((3,5-dichloropyridin-4-yl)thio)-N-((1-methylpiperidin-4-yl)methyl)-4-nitrothiophene-2-carboxamide] gave an EC50 of no more than 1000 nM.

With Cc1cccc(CNC(=O)c2cc([N+](=O)[O-])c(Sc3c(Cl)cncc3Cl)s2)c1 [Example 150, 5-((3,5-dichloropyridin-4-yl)thio)-N-(3-methylbenzyl)-4-nitrothiophene-2-carboxamide] the EC50 was no more than 1000 nM.

O=C(c1cc([N+](=O)[O-])c(Sc2c(Cl)cncc2Cl)s1)N1CCC(F)CC1 [Example 74, (5-((3,5-dichloropyridin-4-yl)thio)-4-nitrothiophen-2-yl)(4-fluoropiperidin-1-yl)methanone] gave an EC50 of 1000 to 10000 nM.

Compound CC1(C)CCN(CCCNC(=O)c2cc([N+](=O)[O-])c(Sc3c(Cl)cncc3Cl)s2)CC1 [Example 229, 5-((3,5-dichloropyridin-4-yl)thio)-N-(3-(4,4-dimethylpiperidin-1-yl)propyl)-4-nitrothiophene-2-carboxamide] has an EC50 of no more than 1000 nM.

Compound COCCNC(=O)CNC(=O)c1cc([N+](=O)[O-])c(Sc2c(Cl)cncc2Cl)s1 [Example 214, 5-((3,5-dichloropyridin-4-yl)thio)-N-(2-((2-methoxyethyl)amino)-2-oxoethyl)-4-nitrothiophene-2-carboxamide] has an EC50 of 1000 to 10000 nM.

CC(=O)N1CCC(NC(=O)c2cc([N+](=O)[O-])c(Sc3c(Cl)cncc3Cl)s2)C1 (stereo not shown) [Example 199, N-(1-acetylpyrrolidin-3-yl)-5-((3,5-dichloropyridin-4-yl)thio)-4-nitrothiophene-2-carboxamide] gave an EC50 of 1000 to 10000 nM.

O=C(Nc1cccc2cccnc12)c1cc([N+](=O)[O-])c(Sc2c(Cl)cncc2Cl)s1 [Example 78, 5-((3,5-dichloropyridin-4-yl)thio)-4-nitro-N-(quinolin-8-yl)thiophene-2-carboxamide] was tested, and the EC50 was greater than 10000 nM.

O=C(NC1CC1)c1cc([N+](=O)[O-])c(Sc2c(Cl)cncc2Cl)s1 [Example 124, N-cyclopropyl-5-((3,5-dichloropyridin-4-yl)thio)-4-nitrothiophene-2-carboxamide] gave an EC50 of no more than 1000 nM.

CN1CCC(NC(=O)c2cc([N+](=O)[O-])c(Sc3c(Cl)cncc3Cl)s2)C1 (stereo not shown) [Example 94, 5-((3,5-dichloropyridin-4-yl)thio)-N-(1-methylpyrrolidin-3-yl)-4-nitrothiophene-2-carboxamide] showed an EC50 of 1000 to 10000 nM.

O=C(NCc1ccccc1Cl)c1cc([N+](=O)[O-])c(Sc2c(Cl)cncc2Cl)s1 [Example 60, N-(2-chlorobenzyl)-5-((3,5-dichloropyridin-4-yl)thio)-4-nitrothiophene-2-carboxamide] was tested, and the EC50 was 1000 to 10000 nM.

Work on O=C(Nc1ccc(F)c(C(F)(F)F)c1)c1cc([N+](=O)[O-])c(Sc2c(Cl)cncc2Cl)s1 [Example 140, 5-((3,5-dichloropyridin-4-yl)thio)-N-(4-fluoro-3-(trifluoromethyl)phenyl)-4-nitrothiophene-2-carboxamid] yielded an EC50 of no more than 1000 nM.

CC(=O)c1cc([N+](=O)[O-])c(Sc2cnc3ccccc3n2)s1 [Example 37, 1-(4-nitro-5-quinoxalin-2-ylsulfanyl-2-thienyl)ethanone] gave an EC50 of 1000 to 10000 nM.

Compound O=Cc1cc([N+](=O)[O-])c(Sc2ccc(Cl)cc2Cl)s1 [Example 32, 5-(2,4-dichlorophenylsulfanyl)-4-nitrothiophene-2-carbaldehyde] has an EC50 of 1000 to 10000 nM.

CN(C)CCC(NC(=O)c1cc([N+](=O)[O-])c(Sc2nc3ccccc3s2)s1)c1ccccc1 (stereo not shown) [Example 254, 5-(benzo[d]thiazol-2-ylthio)-N-(3-(dimethylamino)-1-phenylpropyl)-4-nitrothiophene-2-carboxamide] showed an EC50 of 1000 to 10000 nM.

Compound O=C(NCCCN1CCCC(O)C1)c1cc([N+](=O)[O-])c(Sc2c(Cl)cncc2Cl)s1 (stereo not shown) [Example 223, 5-((3,5-dichloropyridin-4-yl)thio)-N-(3-(3-hydroxypiperidin-1-yl)propyl)-4-nitrothiophene-2-carboxamide] has an EC50 of 1000 to 10000 nM.

For N=C(N)Nc1ccc(NC(=O)c2cc([N+](=O)[O-])c(Sc3c(Cl)cncc3Cl)s2)cc1 [Example 236, 5-((3,5-dichloropyridin-4-yl)thio)-N-(4-guanidinophenyl)-4-nitrothiophene-2-carboxamide], the “USP7 inhibition, result in words” value (USP7, Ub-PLA2 assay) was “Particularly good results” and the EC50 was no more than 1000 nM.

O=C(NCC(=O)N1CCC(CO)CC1)c1cc([N+](=O)[O-])c(Sc2c(Cl)cncc2Cl)s1 [Example 215, 5-((3,5-dichloropyridin-4-yl)thio)-N-(2-(4-(hydroxymethyl)piperidin-1-yl)-2-oxoethyl)-4-nitrothiophene-2-carboxamide] was tested, and the EC50 was 1000 to 10000 nM.

CN1CCC(NC(=O)c2cc([N+](=O)[O-])c(Sc3c(Cl)cccc3Cl)s2)CC1 [Example 269, 5-((2,6-dichlorophenyl)thio)-N-(1-methylpiperidin-4-yl)-4-nitrothiophene-2-carboxamide] gave an EC50 of 1000 to 10000 nM.

COCCN1CC(NC(=O)c2cc([N+](=O)[O-])c(Sc3c(Cl)cncc3Cl)s2)CC1=O (stereo not shown) [Example 93, 5-((3,5-dichloropyridin-4-yl)thio)-N-(1-(2-methoxyethyl)-5-oxopyrrolidin-3-yl)-4-nitrothiophene-2-carboxamide] was tested, and the EC50 was 1000 to 10000 nM.

Work on CN1CCC(NC(=O)c2cc([N+](=O)[O-])c(Sc3c(Cl)c[n+]([O-])cc3Cl)s2)CC1 [Example 242, 3,5-dichloro-4-((5-((1-methylpiperidin-4-yl)carbamoyl)-3-nitrothiophen-2-yl)thio)pyridine 1-oxide] yielded an EC50 of 1000 to 10000 nM.

Work on O=C(Nc1ccc(O)cc1)c1cc([N+](=O)[O-])c(Sc2c(Cl)cncc2Cl)s1 [Example 181, 5-((3,5-dichloropyridin-4-yl)thio)-N-(4-hydroxyphenyl)-4-nitrothiophene-2-carboxamide] yielded an EC50 of no more than 1000 nM.

In the case of CN1CCC(NS(=O)(=O)c2cc([N+](=O)[O-])c(Sc3c(Cl)cncc3Cl)s2)CC1 [Example 246, 5-((3,5-dichloropyridin-4-yl)thio)-N-(1-methylpiperidin-4-yl)-4-nitrothiophene-2-sulfonamide], the EC50 is reported as 1000 to 10000 nM.

CSCCNC(=O)c1cc([N+](=O)[O-])c(Sc2c(Cl)cncc2Cl)s1 [Example 50, 5-((3,5-dichloropyridin-4-yl)thio)-N-(2-(methylthio)ethyl)-4-nitrothiophene-2-carboxamide] gave an EC50 of 1000 to 10000 nM.

With CC(=O)c1cc([N+](=O)[O-])c(Sc2c(F)c(F)c(Cl)c(F)c2F)s1 [Example 272, 1-(5-((4-chloro-2,3,5,6-tetrafluorophenyl)thio)-4-nitrothiophen-2-yl)ethanone] the EC50 was 1000 to 10000 nM and > 10000 nM.
